molecular target: T1, CYP19 (aromatase) (Homo sapiens, UniProt P11511); assay: Inhibition of human CYP19 at 1 uM preincubated for 10 mins followed by protein addition measured after 90 mins by fluorimetric analysis relative to control
T1 sequence (P11511 whole entry): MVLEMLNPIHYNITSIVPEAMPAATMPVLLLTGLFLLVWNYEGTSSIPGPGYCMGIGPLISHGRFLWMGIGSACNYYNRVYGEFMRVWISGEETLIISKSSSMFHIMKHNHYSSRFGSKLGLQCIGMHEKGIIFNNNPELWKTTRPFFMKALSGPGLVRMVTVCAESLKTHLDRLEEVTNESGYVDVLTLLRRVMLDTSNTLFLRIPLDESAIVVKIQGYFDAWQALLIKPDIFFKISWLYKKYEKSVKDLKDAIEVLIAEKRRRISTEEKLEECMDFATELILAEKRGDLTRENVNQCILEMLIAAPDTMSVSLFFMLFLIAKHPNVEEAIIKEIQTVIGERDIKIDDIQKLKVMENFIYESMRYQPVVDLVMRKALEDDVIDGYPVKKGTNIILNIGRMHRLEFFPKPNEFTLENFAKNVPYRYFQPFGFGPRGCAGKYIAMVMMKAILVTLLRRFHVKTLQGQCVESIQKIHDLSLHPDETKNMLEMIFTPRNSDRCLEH

Q: How did the inhibition at 1.5 h, 1 µM turn out when N#Cc1ccc([C@H]2CCc3cncn32)c(Br)c1 was run?
A: 47%

Q: Which inhibition at 1.5 h, 1 µM does the source give for N#Cc1ccc([C@H]2CCCc3cncn32)c(F)c1 here?
A: 20%

Q: N#Cc1ccc(C2CCCc3cncn32)c(Cl)c1 (racemic) was tested. Which inhibition at 1.5 h, 1 µM did it give?
A: 99%

Q: Cc1cc(C#N)ccc1C1CCCc2cncn21 (racemic) was tested. Which inhibition at 1.5 h, 1 µM did it give?
A: 100%

Q: For COc1cc(C#N)ccc1C1CCCc2cncn21 (racemic), which inhibition at 1.5 h, 1 µM is on record?
A: 100%

molecular target: T2, Cytochrome P450 11B2, mitochondrial (Homo sapiens, UniProt P19099); assay: Inhibition of CYP11B2 in human NCI-H295R cells assessed as inhibition of angiotensin-2-induced aldosterone production after 24 hrs by RIA; assay type: cell-based
T2 sequence (P19099 whole entry): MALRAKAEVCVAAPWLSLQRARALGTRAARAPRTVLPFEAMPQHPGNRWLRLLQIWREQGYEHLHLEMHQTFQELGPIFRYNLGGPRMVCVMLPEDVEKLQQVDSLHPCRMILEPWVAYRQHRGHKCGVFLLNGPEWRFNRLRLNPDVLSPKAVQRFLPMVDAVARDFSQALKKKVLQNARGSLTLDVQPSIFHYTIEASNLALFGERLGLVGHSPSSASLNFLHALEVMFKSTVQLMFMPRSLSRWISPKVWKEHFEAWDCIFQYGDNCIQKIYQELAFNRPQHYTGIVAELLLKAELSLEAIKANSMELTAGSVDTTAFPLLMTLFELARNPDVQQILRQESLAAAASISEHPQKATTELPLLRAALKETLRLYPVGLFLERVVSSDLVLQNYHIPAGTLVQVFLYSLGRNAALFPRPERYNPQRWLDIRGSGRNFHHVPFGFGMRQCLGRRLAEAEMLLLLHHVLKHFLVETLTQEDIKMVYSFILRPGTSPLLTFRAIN

Q: For COc1cc(C#N)ccc1[C@H]1CCCCc2cncn21, which IC50 is on record?
A: 520 nM

Q: With COC(=O)[C@]1(c2ccc(C#N)cc2OC)CCc2cncn21 as the compound, how does the IC50 read?
A: 3 nM

Q: With COC(=O)[C@]1(c2ccc(C#N)cc2F)CCc2cncn21 as the compound, how does the IC50 read?
A: 351 nM

Q: Which IC50 does the source give for c1ccc(-c2ccccc2[C@H]2CCc3cncn32)cc1 here?
A: 441 nM

Q: Which IC50 does the source give for Fc1ccc(-c2ccccc2[C@H]2CCc3cncn32)cc1 here?
A: 140 nM

Q: How did the IC50 turn out when N#Cc1ccc([C@H]2CCc3cncn32)c(Br)c1 was run?
A: 10 nM

Q: N#Cc1ccc([C@H]2CCCc3cncn32)c(-c2ccccc2)c1 was tested. Which IC50 did it give?
A: 56 nM

Q: Which IC50 does the source give for c1ccc(-c2ccccc2[C@H]2CCCc3cncn32)cc1 here?
A: 37 nM

Q: With N#Cc1ccc([C@H]2CCCc3cncn32)c(F)c1 as the compound, how does the IC50 read?
A: 87 nM

Q: How did the IC50 turn out when N#Cc1ccc(C2CCCc3cncn32)c(Cl)c1 (racemic) was run?
A: 792 nM

Q: Which IC50 does the source give for Cc1cc(C#N)ccc1C1CCCc2cncn21 (racemic) here?
A: 464 nM

Q: COc1cc(C#N)ccc1C1CCCc2cncn21 (racemic) was tested. Which IC50 did it give?
A: 390 nM

From ChEMBL document CHEMBL3098017, “Discovery and in Vivo Evaluation of Potent Dual CYP11B2 (Aldosterone Synthase) and CYP11B1 Inhibitors” (ACS Med Chem Lett, 2013)
